Results reported in patent publication US11814371B2, “Heterocyclic compound” (MEDSHINE DISCOVERY INC., priority 2020, dated 2023).
Structures can show the parent of a compound that is named as a salt. Where two headings read alike, the source gives them in different places.

Legend:
[1] = molecular target: T1, recombinant human plasma kallikrein (Human PKal) (Homo sapiens, UniProt P03952); experiment: Inhibitory effect of test compounds on plasma kallikrein (PKal), fluorogenic substrate Z-FR-AMC; assay type: biochemical; conditions: 10 µM Z-FR-AMC, 10 min pre-incubation
T1 construct: Gly20-Ala638 derived from NS0- with a 60-His appendage at the C-terminus; His tag ('60-His' [sic]) (C); purchased R&D Systems 2497-SE; host or cells: mouse myeloma cell line NS0
Procedure: 1. PKal reaction buffer: 25 mM Tris-HCl (trometamol-HCl), pH 8.0, 100 mM NaCl, […], 0.01 % Brij35 (polyoxyethylene lauryl ether), and 1 % DMSO (final concentration).
2. Enzyme: PKal (R&D Systems Cat# 2497-SE), recombinant human plasma kallikrein expressed in a mouse myeloma cell line, Gly20-Ala638 derived from NS0- with a 60-His appendage at the C-terminus, MW=70 kDa. Activation of the enzyme: (1) rhPKal was diluted to 200 µg/mL activation buffer (100 mM Tris, 10 mM CaCl2, 150 mM NaCl, pH 7.5 (TCN)); (2) thermolysin was diluted to 20 µg/mL activation buffer; (3) rhPKal (200 µg/mL) and thermolysin (20 µg/mL) were mixed in equal volumes; (4) the mixture was incubated at 37° C. for 30 min; (5) then the reactions was stopped with 50 µM EDTA (ethylenediaminetetraacetic acid).
3. Substrate (Enzo Cat# P-139): 10 µM Z-FR-AMC (AMC: 7-amino-4-methylcoumarin).
4. Detection: EnVision (PE), Ex/Em 355/460 nm.
5. Reaction process: (1) The specified enzymes and substrates were prepared in freshly prepared activation buffer; (2) the enzyme solution was injected into the reaction hole; (3) the DMSO solution of the test compound was injected into the reaction mixture, and controlled within the nanoliter range using acoustic technology (Echo 550, LabCyte Inc. Sunnyvale, CA); (4) after 10 min of pre-incubation, the substrate solution was injected into the reaction hole to start the reaction; (5) the activity of the enzyme could be indicated by the increase of the fluorescence signal of the fluorescent labeled peptide substrate, which was monitored every 5 min and lasted for 120 min at room temperature; (6) data analysis: the slope* (fluorescence signal/time) of the straight line was measured, then the slope could be calculated by excel and the curve could be fitted by Prism software.

[2] = Pharmacokinetic test in rats after intravenous and intragastric administration (plasma, LC-MS/MS); assay type: in vivo; conditions: male, SD, rat; for AUC(0-inf): read-out: Curve area (o-inf) AUC0-inf; for AUC(0-t): read-out: Curve area (o-t) AUC0-last; for half-life: read-out: Half-life T½ (converted); for Tmax: read-out: Peak time Tmax; for Cmax: read-out: Plasma drug concentration Cmax; for bioavailability: read-out: Bioavailability F; for Vd: read-out: Apparent volume of distribution Vdss; for clearance: read-out: Clearance rate Cl
Procedure: Male SD rats were used as test animals, and LC-MS/MS method was used to determine the drug concentrations in plasma of rats at different times after intravenous and intragastric administration of test compounds. The pharmacokinetic behaviors of the compounds in rats were studied and the pharmacokinetic characteristics were evaluated.
2.2 Test animals: 28 healthy adult male SD rats were divided into 14 groups with 2 rats in each group. Animals were purchased from Beijing Vital River Laboratory Animal Technology Co., Ltd.
(§1) An appropriate amount of sample was weighed, and an appropriate amount of DMSO, polyoxyethylene castor oil and sterile water for injection were added in sequence according to the volume ratio of 10:10:80, then the mixture was stirred and sonicated to reach a clear state of 0.5 mg/mL for intravenous administration.
as §1, with “clear or suspension” for “clear”, “0.4” for “0.5”, “intragastric” for “intravenous”
as §1, with “3” for “0.5”
2.4 Administration: 28 male SD rats were divided into 14 groups, after fasting for one night, the intravenous administration group was administered with an administration volume of 2 mL/kg and a dose of 1 mg/kg; the intragastric administration group 1 was administered with an administration volume of 5 mL/kg and a dose of 2 mg/kg. The intragastric administration group 2 was administered with an administration volume of 10 mL/kg and a dose of 30 mg/kg.
After the compound was administered intravenously to male SD rats, 40 µL of blood was collected at 0.0833, 0.25, 0.5, 1, 2, 4, 8 and 24 hours, respectively, and placed in tubes containing 2 µL of EDTA-K2. After the compound was administered in the intragastric administration group, 40 µL of blood was collected at 0.25, 0.5, 1, 2, 4, 6, 10 and 24 hours, respectively, and placed in tubes containing 2 µL of EDTA-K2. The tubes were centrifuged at 4000 rpm for 15 minutes to separate the plasma, and stored at -60° C. Animals were allowed to eat 2 hours after administration.
LC-MS/MS method was used to determine the content of the test compounds in the plasma of rats after intravenous and intragastric administration. The linear range of the method was 2.00 - 6000 nmol/L; plasma samples were treated with acetonitrile to precipitate protein, and then analyzed.

[3] = po, intragastric administration (group 1), nominal 2 mg/kg (actual dose in c2)
[4] = intravenous administration, nominal 1 mg/kg (actual dose in c2)
[5] = po, intragastric administration (group 2), nominal 30 mg/kg (actual dose in c2)

T1 sequence (P03952 20-638): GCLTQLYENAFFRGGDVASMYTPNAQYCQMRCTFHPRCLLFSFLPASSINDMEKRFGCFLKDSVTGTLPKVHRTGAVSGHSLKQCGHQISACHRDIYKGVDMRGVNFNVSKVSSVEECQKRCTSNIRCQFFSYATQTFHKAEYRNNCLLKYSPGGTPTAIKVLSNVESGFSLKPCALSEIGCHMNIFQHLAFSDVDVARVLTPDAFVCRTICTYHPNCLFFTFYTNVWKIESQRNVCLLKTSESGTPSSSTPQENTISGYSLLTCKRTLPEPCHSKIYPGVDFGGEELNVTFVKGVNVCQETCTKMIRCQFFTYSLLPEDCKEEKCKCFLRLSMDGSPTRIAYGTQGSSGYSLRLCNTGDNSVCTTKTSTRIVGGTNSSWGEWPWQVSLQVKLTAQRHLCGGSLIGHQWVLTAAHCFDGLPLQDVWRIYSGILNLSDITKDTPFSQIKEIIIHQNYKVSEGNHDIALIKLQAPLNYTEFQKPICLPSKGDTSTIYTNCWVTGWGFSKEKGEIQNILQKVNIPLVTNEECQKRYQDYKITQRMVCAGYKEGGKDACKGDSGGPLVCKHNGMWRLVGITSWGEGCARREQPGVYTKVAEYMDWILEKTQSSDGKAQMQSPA

Compound	IC50 [1]	AUC(0-inf) [2, 3]	AUC(0-t) [2, 3]	half-life [2, 3]	Tmax [2, 3]	Cmax [2, 3]	further results
COc1ccnc(CNC(=O)c2cn(Cc3ccc(Cn4cc(F)ccc4=O)cc3)nc2C2COC2)c1F [Compound 2]	1.53 nM	0.246 µM·h	0.241 µM·h	26.2 min	15 min	301 nM	
COc1ccc(Cl)c(CNC(=O)c2cn(Cc3ccc(Cn4cc(F)ccc4=O)cc3)nc2C2COC2)c1F [Compound 3]	0.264 nM	2.12 µM·h	2.11 µM·h	82.2 min	30 min	1760 nM	bioavailability [2, 3]: 19.3%; Vd [2, 4]: 0.169 L/kg; clearance [2, 4]: 7.85 mL/min/kg; AUC(0-inf) [2, 4]: 5.5 µM·h; AUC(0-t) [2, 4]: 5.49 µM·h; half-life [2, 4]: 42.8 min
COc1ccc(F)c(CNC(=O)c2cn(Cc3ccc(Cn4cc(F)ccc4=O)nc3)nc2C2COC2)c1F [Compound 6]	2.63 nM	0.661 µM·h	0.653 µM·h	140 min	22.2 min	650 nM	
COc1ccc(F)c(CNC(=O)c2cn(Cc3ccc(Cn4ccccc4=O)c(F)c3)nc2C2COC2)c1F [Compound 7]	0.552 nM						AUC(0-inf) [2, 5]: 1.93 µM·h; AUC(0-t) [2, 5]: 1.84 µM·h; half-life [2, 5]: 157 min; Tmax [2, 5]: 30 min; Cmax [2, 5]: 813 nM
COc1ccnc(CNC(=O)c2cn(Cc3ccc(Cn4cc(F)ccc4=O)cc3)nc2C2(C)COC2)c1F [Compound 9]	1.03 nM						
COc1ccc(F)c(CNC(=O)c2cn(Cc3ccc(Cn4ccccc4=O)cc3)nc2C2CNC2)c1F [Hydrochloride of compound 11]	0.269 nM						
COc1ccnc(CNC(=O)c2cn(Cc3ccc(Cn4cc(F)ccc4=O)c(F)c3)nc2C2COC2)c1F [Hydrochloride of compound 18]	2.31 nM						

Further lines, with some results ahead:

IC50 [1]	AUC(0-inf) [2, 3]	AUC(0-t) [2, 3]	half-life [2, 3]	Tmax [2, 3]	Cmax [2, 3]	Compound	further results
0.052 nM	1.8 µM·h	1.79 µM·h	76.8 min	22.2 min	1550 nM	COc1ccc(Cl)c(CNC(=O)c2cn(Cc3ccc(Cn4ccccc4=O)cc3)nc2C2COC2)c1F [Compound 4]	bioavailability [2, 3]: 22.7%; Vd [2, 4]: 0.182 L/kg; clearance [2, 4]: 8.26 mL/min/kg; AUC(0-inf) [2, 4]: 3.95 µM·h; AUC(0-t) [2, 4]: 3.94 µM·h; half-life [2, 4]: 36.3 min
18.7 nM						COc1ccc(F)c(CNC(=O)c2cn(Cc3ccc(Cn4ccccc4=O)cn3)nc2C2COC2)c1F [Compound 5]	
0.344 nM						COc1ccc(F)c(CNC(=O)c2cn(Cc3ccc(Cn4cc(F)ccc4=O)cc3)nc2C2(C)COC2)c1F [Compound 10]	
0.833 nM						COc1ccc(F)c(CNC(=O)c2cn(Cc3ccc(Cn4ccccc4=O)cc3)nc2C2CN(C(C)=O)C2)c1F [Compound 13]	
0.717 nM						COc1ccc(F)c(CNC(=O)c2cn(Cc3ccc(Cn4ccccc4=O)cc3)nc2C2CN(S(C)(=O)=O)C2)c1F [Compound 14]	
2.24 nM						COc1ccnc(CNC(=O)c2cn(Cc3ccc(Cn4cc(F)ccc4=O)cc3)nc2C2CN(CC(F)(F)F)C2)c1F [Compound 15]	
0.62 nM	1.94 µM·h	1.93 µM·h	136 min	45 min	1140 nM	COc1ccc(F)c(CNC(=O)c2cn(Cc3ccc(Cn4ccccc4=O)cc3)nc2C2COC2)c1F [Compound 16]	bioavailability [2, 3]: 22.1%; Vd [2, 4]: 0.2 L/kg; clearance [2, 4]: 7.3 mL/min/kg; AUC(0-inf) [2, 4]: 4.39 µM·h; AUC(0-t) [2, 4]: 4.37 µM·h; half-life [2, 4]: 35.8 min
0.053 nM	0.246 µM·h	0.237 µM·h	50.8 min	30 min	230 nM	COc1ccnc(CNC(=O)c2cn(Cc3ccc(Cn4ccccc4=O)cc3)nc2C2COC2)c1F [Compound 17]	
1.08 nM						COc1ccc(F)c(CNC(=O)c2cn(Cc3ccc(Cn4ccccc4=O)cc3)nc2C2CN(C)C2)c1F [Hydrochloride of compound 12]	
